Test results published in patent publication US20240041042A1, “1-(PYRIDYL)-5-AZINYLPYRAZOLE DERIVATIVES, AND THEIR USE FOR CONTROL OF UNDESIRED PLANT GROWTH” (Bayer Aktiengesellschaft, priority 2020, published 2024).

Legend:
Format in all cases: in vivo
[1] = test system: Echinochloa crus-galli (ECHCG); assay: Pre-emergence herbicidal action against ECHCG
Summary of the method: (§1)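 Read-out is visual percent damage relative to untreated pots, with 100% meaning dead plants and 0% meaning no difference, assessed roughly three weeks after treatment. Compounds were applied pre-emergence to the covering soil at up to 320 g/ha.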

Viola tricolor (VIOTR) = assay: Pre-emergence herbicidal action against VIOTR
Summary of the method: as §1

[2] = test system: Pharbitis purpurea (PHBPU); assay: Pre-emergence herbicidal action against PHBPU
Summary of the method: as §1

[3] = test system: Polygonum convolvulus (POLCO); assay: Pre-emergence herbicidal action against POLCO
Summary of the method: as §1

Avena fatua (AVEFA) = assay: Pre-emergence herbicidal action against AVEFA; details: visual scoring after about 3 weeks vs untreated controls
Summary of the method: as §1

[4] = test system: Pharbitis purpurea (PHBPU); assay: Post-emergence herbicidal action against PHBPU
Summary of the method: (§2)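 Rates were 320 g/ha or below, applied as aqueous WP/EC spray with 0.5% additive (600 l/ha) onto one-leaf-stage plants. About 3 weeks later in the greenhouse, damage was scored visually against untreated plants on a 0–100% scale, where 100% means plants died.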

[5] = test system: Polygonum convolvulus (POLCO); assay: Post-emergence herbicidal action against POLCO
Summary of the method: as §2

[6] = test system: Verconica persica (VERPE); assay: Post-emergence herbicidal action against VERPE
Summary of the method: as §2

[7] = test system: Amaranthus retroflexus (AMARE); assay: Post-emergence herbicidal action against AMARE
Summary of the method: as §2

[8] = test system: Abutilon theophrasti (ABUTH); assay: Post-emergence herbicidal action against ABUTH; details: visual rating about 3 weeks after treatment vs untreated controls (100% = plants have died, 0% = like control plants)
Summary of the method: as §2

[9] = 80 g/ha, visual rating about 3 weeks after treatment vs untreated controls (100% = plants have died, 0% = like control plants)
[10] = 320 g/ha, visual rating about 3 weeks after treatment

Structure (SMILES) | Pre-emergence action against ECHCG in % ([1]; dosage 80 g/ha) [%] | Pre-emergence action against ECHCG in % ([1]; dosage 320 g/ha) [%] | Pre-emergence action against VIOTR in % (Viola tricolor (VIOTR); 320 g/ha, Viola tricolor) [%] | Pre-emergence action against VIOTR in % (Viola tricolor (VIOTR); dosage 80 g/ha) [%] | Pre-emergence action against PHBPU in % ([2]; dosage 80 g/ha) [%] | Pre-emergence action against PHBPU in % ([2]; dosage 320 g/ha) [%] | Pre-emergence action against POLCO in % ([3]; dosage 80 g/ha) [%] | Pre-emergence action against POLCO in % ([3]; dosage 320 g/ha) [%] | Pre-emergence action against AVEFA in % (Avena fatua (AVEFA); 80 g/ha) [%] | Pre-emergence action against AVEFA in % (Avena fatua (AVEFA); 320 g/ha) [%] | Post-emergence action against PHBPU in % ([4]; dosage 80 g/ha) [%] | Post-emergence action against PHBPU in % ([4]; dosage 320 g/ha) [%] | Post-emergence action against POLCO in % ([5]; dosage 320 g/ha) [%] | Post-emergence action against VERPE in % ([6]; 320 g/ha, VERPE) [%] | Post-emergence action against AMARE in % [7, 9] [%] | Post-emergence action against AMARE in % [7, 10] [%] | Post-emergence action against VERPE in % ([6]; dosage 80 g/ha) [%] | Post-emergence action against ABUTH in % ([8]; 80 g/ha) [%] | Post-emergence action against ABUTH in % ([8]; 320 g/ha) [%] | Post-emergence action against POLCO in % ([5]; dosage 80 g/ha) [%]
CCOC(=O)COc1nn(-c2nc(F)ccc2F)c(-c2cncc(F)c2)c1C1CC1 [Example I-149] | 90 | 100 | 100 | 100 | 80 | 90 | 80 | 90 | 80 | 90 | 80 | 80 | 80 | 80 | – | – | – | – | – | –
COC(=O)[C@@H](C)Oc1nn(-c2nc(F)ccc2F)c(-c2cncc(F)c2)c1Br [Example I-191] | 90 | 100 | 100 | 100 | 80 | 90 | 80 | 90 | – | 100 | 90 | 100 | – | 90 | 80 | 80 | 80 | 80 | 80 | –
COC(=O)CNC(=O)[C@@H](C)Oc1nn(-c2ccccn2)c(-c2cncc(F)c2)c1Br [Example I-187] | 90 | 100 | 100 | 100 | 90 | 90 | 90 | 90 | – | 90 | – | 80 | 80 | 90 | – | – | 90 | – | 80 | 80
O=C(O)COc1nn(-c2ncccc2F)c(-c2ccc(F)nc2)c1Br [Example I-17] | 90 | 90 | 100 | 100 | – | 90 | 90 | 100 | 80 | 100 | – | 80 | – | 80 | – | – | – | – | – | –
O=C(O)COc1nn(-c2ccccn2)c(-c2cncnc2)c1Br [Example I-66] | 80 | 100 | 100 | 90 | – | – | 90 | 90 | – | 90 | – | 80 | 90 | 90 | 80 | 90 | 90 | – | 80 | 80
COC(=O)C(C)NC(=O)[C@@H](C)Oc1nn(-c2ccccn2)c(-c2cncc(F)c2)c1Br (some centres unmarked) [Example I-190] | 90 | 100 | 100 | 100 | 90 | 90 | 90 | 90 | – | 90 | – | – | 80 | 90 | – | 80 | 80 | 80 | 80 | 80
COC(=O)COc1nn(-c2nc(F)ccc2F)c(-c2cncc(F)c2)c1C1CC1 [Example I-164] | 90 | 100 | 100 | 100 | 80 | 90 | – | 100 | 90 | 90 | 80 | 90 | – | 80 | – | – | 80 | – | – | –
